Measured values: article PMC6072100, “Exploring the links between peptoid antibacterial activity and toxicity” (MedChemComm, 2017)
Like-named read-outs stand apart in the source and are kept apart here. Square brackets hold non-standard residues; d marks the D form. Ends that are not written are not given here. Peptide text beside a SMILES is read from it. Nspe = C[C@H](NCC(=O)O)c1ccccc1; NhArg = N=C(N)NCCCCNCC(=O)O; Nphe = O=C(O)CNCc1ccccc1; Nlys = NCCCCNCC(=O)O

Tests used:
[1] = Skin cell toxicity assay with HaCaT (alamarBlue); format: cell-based, human; conditions: human, HaCaT cells (keratinocytes), ED50 HaCaT
Protocol: (§1) The activity of our peptoid library was assessed against both bacterial and mammalian cells to gain a broader understanding of the factors that lead to effective and selective antimicrobial peptoids. We screened for broad-spectrum antibacterial activity against Gram-negative (Escherichia coli and Pseudomonas aeruginosa) and Gram-positive (Staphylococcus aureus and S. epidermidis) bacteria. The toxicity of the library was also assessed against two mammalian cell lines; HaCaT spontaneously transformed aneuploid keratinocytes were employed to model toxicity against human skin cells and HepG2, a cell line derived from a human liver carcinoma, were used as a study on polarised human hepatocytes. Detailed methods for these assays can be found in the ESI. ^‡ […]
(§2) Please note – ED50, the median effective dose, was defined as the dose that kills 50% of cells.
(§3) Cytotoxicity analyses were performed in 96-well plates (Costar, Fisher Scientific) using alamarBlue® (Invitrogen) for cell viability detection using a modified protocol as described previously. HepG2 or HaCaT cells were subcultured at 37 °C, 5% CO2 in DMEM high glucose supplemented with heat-inactivated foetal bovine sera (FBS, 10%; Biosera Ltd) and penicillin/streptomycin (P/S, 1%). Cells were counted using a Neubauer Improved Haemocytometer. HepG2 cells were seeded 1 day prior to treatment in 96 well plates at a concentration of 2 × 10^5 cells per mL in 100 μL of medium (2 × 10^4 cells per well). Then cells were pre-incubated with the compounds in triplicate in a dilution series in triplicate from 2–100 μM (5 mM stock solutions in DMSO diluted from 100 μM to 3 μM; untreated cells with DMSO as a negative control) in 50 μl of the media for 1 hour. Afterwards, 40 μL were removed from each well before the addition of 90 μL of the media, followed by incubation for 24 hours at 37 °C, 5% CO2. Then, 10 μL of alamarBlue® (Invitrogen) was added to each well before a 2 hour incubation prior to assessing cell viability using a fluorescent plate reader (Biotek; Ex 560 nm/Em 600 nm). All data were measured in triplicate on a minimum of two occasions to ensure a robust data set was collected. The ED50 values were calculated from the dose response results achieved from the serial dilutions. […]
(§4) Cells were counted using a Neubauer Improved
(§5) Haemocytometer. […]
(§6) µM to 3 µM; untreated cells with DMSO as a negative control) in 50 µl of the media for 1 hour.
(§7) Afterwards, 40 µL were removed from each well before the addition of 90 µL of the media, followed by incubation for 24 hours at 37 °C, 5% CO2. Then, 10 µL of alamarBlue® (Invitrogen) was added to each well before a 2 hour incubation prior to assessing cell viability using a fluorescent plate reader (Biotek; Ex 560 nm / Em 600 nm). All data was measured in triplicate on a minimum of two occasions to ensure a robust data set was collected. The ED50 values were calculated from the dose response results achieved from the serial dilutions.
(§8) Skin Cell Toxicity assay with HaCaT […]
(§9) alamarBlue® (Invitrogen) for cell viability detection. HaCaT cells were subcultured at 37 °C, 5% CO2 in DMEM high glucose supplemented with heat-inactivated foetal bovine sera (FBS, 10%; Biosera Ltd) and penicillin/streptomycin (P/S, 1%). Cells were counted using a Neubauer Improved Haemocytometer. HaCaT cells were seeded in the plates 24 hours prior to treatment in 96 well plates at a concentration of 2x10^5 cells/mL in 100 µL of medium (2x10^4 cells/well).
(§10) Empty wells were filled with 100 µL PBS. After 24 hours, cells were incubated with the compounds in a dilution series in triplicate from 2 – 100 µM (5 mM stock solutions in DMSO diluted from 100 µM to 3 µM; Amphotericin B was used as a positive control and untreated cells with DMSO as a negative control) in 50 µL of the media for 1 hour. Afterwards, 40 µl was removed from each well, 90 µL of medium was added to each well and the cells incubated for 24 hours at 37 °C, 5% CO2. 10 µL of alamarBlue® (Invitrogen) was added to each well before […]

[2] = system: HaCaT cells; assay: Skin cell toxicity assay with HaCaT (alamarBlue); format: cell-based, human; conditions: human, HaCaT cells (keratinocytes), 24 h
Protocol: as §1, §2, §3, §4, §5, §6, §7, §8, §9, §10

[3] = system: Escherichia coli K-12 wild-type strain (W3110/ATCC27325); format: cell-based; conditions: lowest concentration completely inhibiting growth, 37 °C, 16 h; range 2–100 μM
Protocol: (§11) Escherichia coli K-12 wild-type strain (W3110/ATCC27325, F^–, λ^–, rpoS(Am), rph-1, Inv(rrnD-rrnE)), Pseudomonas aeruginosa PA01 (ATCC 15692) Staphylococcus aureus (3R7089 strain Oxford/ATCC9144) and Staphylococcus epidermidis (laboratory strain from clinical isolate) were selected for bacteriological studies as representative Gram-negative (E. coli and P. aeruginosa) and Gram-positive (S. aureus and S. epidermidis) species. Bacterial cultures were prepared by streaking bacterial strains onto LB agar plates with an inoculation loop and incubated overnight at 37 °C. A single colony was selected and placed in 5 mL of Iso-sensitest broth (Oxoid, ThermoScientific) and incubated with shaking for 16–18 h at 37 °C to provide liquid cultures for testing.
(§12) MIC values were obtained according to the protocol described by J. M. Andrews et al.[58] and were conducted in 96-well plates (Sarstedt). Bacteria were grown from overnight cultures in Iso-sensitest broth to an A650nm of 0.07 equivalent to a 0.5 MacFarland standard (240 μM BaCl2 in 0.18 M H2SO4). This culture was diluted ten-fold with Iso-sensitest broth before use. Peptoids were initially dissolved in DMSO (5 mM) and diluted further in Iso-sensitest broth to achieve a concentration range of 4–200 μM using 2-fold serial dilutions. 50 μl of inoculum and 50 μl of peptoid solution were added to each test well (final concentration range of 2–100 μM). Experiments were performed in triplicate. A positive control for bacterial growth contained only the inoculum and Iso-sensitest broth. Other controls contained the inoculum and serial dilutions of ampicillin (from 250 μg mL^–1 to 2 μg mL^–1), serial dilutions of DMSO and the inoculum to confirm no inhibitory effect on bacterial growth, and Iso-sensitest broth alone as a sterile control. […] Quantitative data was attained from absorbance values using a Biotek Synergy H4 plate reader.
(§13) Antibacterial MIC determination
as §11, with “(W3110 / ATCC27325, F-, λ-,” for “(W3110/ATCC27325, F^–, λ^–,”, “Oxford / ATCC9144)” for “Oxford/ATCC9144)”, “°C.” for “°C. A single colony was selected and placed in 5 mL of Iso-sensitest broth (Oxoid, ThermoScientific) and incubated with shaking for 16–18 h at 37 °C to provide liquid cultures for testing.”
(§14) A single colony was selected and placed in 5 mL of Iso-sensitest broth (Oxoid, ThermoScientific) and incubated with shaking for 16-18 h at 37 °C to provide liquid […]
(§15) MIC values were obtained according to the protocol described by J. M. Andrews et al.1 and were conducted in 96-well plates (Sarstedt). Bacteria were grown from overnight cultures in Iso-sensitest broth to an A650nm of 0.07 equivalent to a 0.5 MacFarland standard (240 μM BaCl2 in 0.18 M H2SO4). This culture was diluted ten-fold with Iso-sensitest broth before use. Peptoids were initially dissolved in DMSO (5 mM) and diluted further in Iso-sensitest broth to achieve a concentration range of 4 – 200 µM using 2-fold serial dilutions. 50 μl of inoculum and 50 μl of peptoid solution were added to each test well (final concentration range of 2 – 100 µM). Experiments were performed in triplicate. A positive control for bacterial growth contained only the inoculum and Iso-sensitest broth. Other controls contained the inoculum and serial dilutions of ampicillin (from 250 µg/mL to 2 µg/mL), serial dilutions of DMSO and the inoculum to confirm no inhibitory effect on bacterial growth, and Iso-sensitest broth alone as a sterile control. […]
(§16) growth after incubation at 37 °C for 16 h with shaking. Quantitative data was attained from absorbance values using a Biotek Synergy H4 plate reader.

[4] = system: Pseudomonas aeruginosa PA01 (ATCC 15692); format: cell-based; conditions: lowest concentration completely inhibiting growth, 37 °C, 16 h; range 2–100 μM
Protocol: as §11, §12, §13
as §11, with “(W3110 / ATCC27325, F-, λ-,” for “(W3110/ATCC27325, F^–, λ^–,”, “Oxford / ATCC9144)” for “Oxford/ATCC9144)”, “°C.” for “°C. A single colony was selected and placed in 5 mL of Iso-sensitest broth (Oxoid, ThermoScientific) and incubated with shaking for 16–18 h at 37 °C to provide liquid cultures for testing.”
as §14, §15, §16

[5] = system: Staphylococcus epidermidis (laboratory strain from clinical isolate); format: cell-based; conditions: lowest concentration completely inhibiting growth, 37 °C, 16 h; range 2–100 μM
Protocol: as §11, §12, §13
as §11, with “(W3110 / ATCC27325, F-, λ-,” for “(W3110/ATCC27325, F^–, λ^–,”, “Oxford / ATCC9144)” for “Oxford/ATCC9144)”, “°C.” for “°C. A single colony was selected and placed in 5 mL of Iso-sensitest broth (Oxoid, ThermoScientific) and incubated with shaking for 16–18 h at 37 °C to provide liquid cultures for testing.”
as §14, §15, §16

[6] = system: Staphylococcus aureus (3R7089 strain Oxford/ATCC9144); format: cell-based; conditions: lowest concentration completely inhibiting growth, 37 °C, 16 h; range 2–100 μM
Protocol: as §11, §12, §13
as §11, with “(W3110 / ATCC27325, F-, λ-,” for “(W3110/ATCC27325, F^–, λ^–,”, “Oxford / ATCC9144)” for “Oxford/ATCC9144)”, “°C.” for “°C. A single colony was selected and placed in 5 mL of Iso-sensitest broth (Oxoid, ThermoScientific) and incubated with shaking for 16–18 h at 37 °C to provide liquid cultures for testing.”
as §14, §15, §16

[7] = system: E. coli; design: method as in PMID 10681325, PMID 3299384; conditions: cited from earlier work
[8] = system: S. epidermidis; design: method as in PMID 10681325, PMID 3299384; conditions: cited from earlier work
[9] = system: S. aureus; design: method as in PMID 10681325, PMID 3299384; conditions: cited from earlier work
[10] = system: E. coli; design: method as in PMID 10681325; conditions: cited from earlier work

N=C(N)NCCCCNCC(=O)N(CC(=O)N(CC(=O)N(CCCCNC(=N)N)CC(=O)N(CC(=O)N(CC(=O)N(CCCCNC(=N)N)CC(=O)N(CC(=O)N(CC(=O)N(CCCCNC(=N)N)CC(=O)N(CC(=O)N(CC(N)=O)Cc1ccccc1)Cc1ccccc1)Cc1ccccc1)Cc1ccccc1)Cc1ccccc1)Cc1ccccc1)Cc1ccccc1)Cc1ccccc1 [Peptoid 33, (NhArgNpheNphe)4] (H-[NhArg][Nphe][Nphe][NhArg][Nphe][Nphe][NhArg][Nphe][Nphe][NhArg][Nphe][Nphe]-NH2)
CC50 at 24 h [1]: 100 µM | ED50 HaCaT [2]: >100 µM | MIC E. coli [3]: 6 µM | MIC P. aeruginosa [4]: 25 µM | MIC S. epidermidis [5]: 2 µM

C[C@@H](c1ccccc1)N(CC(N)=O)C(=O)CN(C(=O)CN(CCCCNC(=N)N)C(=O)CN(C(=O)CN(C(=O)CN(CCCCNC(=N)N)C(=O)CN(C(=O)CN(C(=O)CN(CCCCN)C(=O)CN(C(=O)CN(C(=O)CNCCCCN)[C@@H](C)c1ccccc1)[C@@H](C)c1ccccc1)[C@@H](C)c1ccccc1)[C@@H](C)c1ccccc1)[C@@H](C)c1ccccc1)[C@@H](C)c1ccccc1)[C@@H](C)c1ccccc1 [Peptoid 41, (NLysNspeNspe)2(NhArgNspeNspe)2] (H-[Nlys][Nspe][Nspe][Nlys][Nspe][Nspe][NhArg][Nspe][Nspe][NhArg][Nspe][Nspe]-NH2)
CC50 at 24 h [1]: 100 µM | ED50 HaCaT [2]: >100 µM | MIC E. coli [3]: 17 µM | MIC P. aeruginosa [4]: 34 µM | MIC S. aureus [6]: 17 µM

Magainin 2
MIC E. coli [7]: 5 μg mL^–1 | MIC E. coli ([7]; value in brackets, in μM): 2 µM | MIC S. epidermidis [8]: 10 μg mL^–1 | MIC S. epidermidis ([8]; value in brackets, in μM): 4 µM | MIC S. aureus [9]: 50 μg mL^–1 | MIC S. aureus ([9]; value in brackets, in μM): 20 µM

cecropin A (KWKLFKKIEKVGQNIRDGIIKAGPAVAVVGQATQIAK; ends and bridges not checked; UniProt P01507 27-63, looked up) [natural antimicrobial peptide (AMP) described in the literature]
concentration shown to kill 90% of E. coli [10]: 2 µM
